Legend:
Experiment in all cases: relative viability (nuclei count vs DMSO), 5 days (fraction); higher = more cells survive
DM3189 = compound: C1CN(CCN1)C2=CC=C(C=C2)C3=CN4C(=C(C=N4)C5=CC=NC6=CC=CC=C56)N=C3 [DM3189]
Outline: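 Lung cancer cell lines in 1536-well plates were kept overnight at 37 °C, then pinned with five library-drug doses (not always all listed) spaced by √10 on vehicle-anchored plates. After 5 days without medium change, cells were fixed, permeabilised and Hoechst-stained in one step, imaged at 4×, and nuclei were counted with MetaXpress. Viability is treated-well nuclei divided by vehicle-well nuclei, taken as the median over plates. Plates passed only with control CV below 25% and at least one doubling.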

DM3189 + Bortezomib = compound: C1CN(CCN1)C2=CC=C(C=C2)C3=CN4C(=C(C=N4)C5=CC=NC6=CC=CC=C56)N=C3 [DM3189] + CC(C)C[C@H](NC(=O)[C@H](Cc1ccccc1)NC(=O)c1cnccn1)B(O)O [Bortezomib] (partner 0.002 µM)
Outline: (§1)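 Relative viability equals treated-well nuclei counts divided by vehicle-well nuclei counts. Counts came from 4× images of lung cancer cell lines grown in 1536-well plates for 5 days after pin-tool dosing on the day after seeding. Dosing used one drug alone or a fixed anchor-drug dose plus five library-drug doses (not always all listed) in √10 steps, and values are medians of duplicate plates.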

DM3189 + Pictilisib = compound: C1CN(CCN1)C2=CC=C(C=C2)C3=CN4C(=C(C=N4)C5=CC=NC6=CC=CC=C56)N=C3 [DM3189] + CS(=O)(=O)N1CCN(Cc2cc3nc(-c4cccc5[nH]ncc45)nc(N4CCOCC4)c3s2)CC1 [Pictilisib] (partner 1 µM)
Outline: as §1

DM3189 + Navitoclax = compound: C1CN(CCN1)C2=CC=C(C=C2)C3=CN4C(=C(C=N4)C5=CC=NC6=CC=CC=C56)N=C3 [DM3189] + CC1(C)CCC(c2ccc(Cl)cc2)=C(CN2CCN(c3ccc(C(=O)NS(=O)(=O)c4ccc(N[C@H](CCN5CCOCC5)CSc5ccccc5)c(S(=O)(=O)C(F)(F)F)c4)cc3)CC2)C1 [Navitoclax] (partner 0.5 µM)
Outline: as §1

DM3189 + Foretinib = compound: C1CN(CCN1)C2=CC=C(C=C2)C3=CN4C(=C(C=N4)C5=CC=NC6=CC=CC=C56)N=C3 [DM3189] + COc1cc2c(Oc3ccc(NC(=O)C4(C(=O)Nc5ccc(F)cc5)CC4)cc3F)ccnc2cc1OCCCN1CCOCC1 [Foretinib] (partner 0.25 µM)
Outline: as §1

DM3189 + Olaparib = compound: C1CN(CCN1)C2=CC=C(C=C2)C3=CN4C(=C(C=N4)C5=CC=NC6=CC=CC=C56)N=C3 [DM3189] + O=C(c1cc(Cc2n[nH]c(=O)c3ccccc23)ccc1F)N1CCN(C(=O)C2CC2)CC1 [Olaparib] (partner 8 µM)
Outline: as §1

DM3189 + Lapatinib = compound: C1CN(CCN1)C2=CC=C(C=C2)C3=CN4C(=C(C=N4)C5=CC=NC6=CC=CC=C56)N=C3 [DM3189] + CS(=O)(=O)CCNCc1ccc(-c2ccc3ncnc(Nc4ccc(OCc5cccc(F)c5)c(Cl)c4)c3c2)o1 [Lapatinib] (partner 2 µM)
Outline: as §1

DM3189 + Crizotinib = compound: C1CN(CCN1)C2=CC=C(C=C2)C3=CN4C(=C(C=N4)C5=CC=NC6=CC=CC=C56)N=C3 [DM3189] + C[C@@H](Oc1cc(-c2cnn(C3CCNCC3)c2)cnc1N)c1c(Cl)ccc(F)c1Cl [Crizotinib] (partner 1 µM)
Outline: as §1

DM3189 + Linsitinib = compound: C1CN(CCN1)C2=CC=C(C=C2)C3=CN4C(=C(C=N4)C5=CC=NC6=CC=CC=C56)N=C3 [DM3189] + C[C@]1(O)C[C@@H](c2nc(-c3ccc4ccc(-c5ccccc5)nc4c3)c3c(N)nccn32)C1 [Linsitinib] (partner 1 µM)
Outline: as §1

DM3189 + Alpelisib = compound: C1CN(CCN1)C2=CC=C(C=C2)C3=CN4C(=C(C=N4)C5=CC=NC6=CC=CC=C56)N=C3 [DM3189] + Cc1nc(NC(=O)N2CCC[C@H]2C(N)=O)sc1-c1ccnc(C(C)(C)C(F)(F)F)c1 [Alpelisib] (partner 2 µM)
Outline: as §1

## EBC-1
DM3189; 0.08 µM
  relative viability: 0.974
DM3189; 0.253 µM
  relative viability: 0.989
DM3189; 0.8 µM
  relative viability: 0.963
DM3189; 2.53 µM
  relative viability: 1.07
DM3189 + Bortezomib; first compound 0.08 µM
  relative viability: 0.63
DM3189 + Bortezomib; first compound 0.253 µM
  relative viability: 0.611
DM3189 + Bortezomib; first compound 0.8 µM
  relative viability: 0.483
DM3189 + Bortezomib; first compound 2.53 µM
  relative viability: 0.551
DM3189 + Pictilisib; first compound 0.08 µM
  relative viability: 0.419
DM3189 + Pictilisib; first compound 0.253 µM
  relative viability: 0.435
DM3189 + Pictilisib; first compound 0.8 µM
  relative viability: 0.344
DM3189 + Pictilisib; first compound 2.53 µM
  relative viability: 0.285
DM3189 + Navitoclax; first compound 0.08 µM
  relative viability: 0.48
DM3189 + Navitoclax; first compound 0.253 µM
  relative viability: 0.356
DM3189 + Navitoclax; first compound 0.8 µM
  relative viability: 0.478
DM3189 + Navitoclax; first compound 2.53 µM
  relative viability: 0.391
DM3189 + Foretinib; first compound 0.08 µM
  relative viability: 0.11
DM3189 + Foretinib; first compound 0.253 µM
  relative viability: 0.106
DM3189 + Foretinib; first compound 0.8 µM
  relative viability: 0.0886
DM3189 + Foretinib; first compound 2.53 µM
  relative viability: 0.0977
DM3189 + Olaparib; first compound 0.08 µM
  relative viability: 0.858
DM3189 + Olaparib; first compound 0.253 µM
  relative viability: 0.778
DM3189 + Olaparib; first compound 0.8 µM
  relative viability: 0.71
DM3189 + Olaparib; first compound 2.53 µM
  relative viability: 0.673
DM3189 + Lapatinib; first compound 0.08 µM
  relative viability: 0.228
DM3189 + Lapatinib; first compound 0.253 µM
  relative viability: 0.214
DM3189 + Lapatinib; first compound 0.8 µM
  relative viability: 0.214
DM3189 + Lapatinib; first compound 2.53 µM
  relative viability: 0.2
DM3189 + Crizotinib; first compound 0.08 µM
  relative viability: 0.196
DM3189 + Crizotinib; first compound 0.253 µM
  relative viability: 0.183
DM3189 + Crizotinib; first compound 0.8 µM
  relative viability: 0.164
DM3189 + Crizotinib; first compound 2.53 µM
  relative viability: 0.179
DM3189 + Linsitinib; first compound 0.08 µM
  relative viability: 0.993
DM3189 + Linsitinib; first compound 0.253 µM
  relative viability: 0.965
DM3189 + Linsitinib; first compound 0.8 µM
  relative viability: 0.869
DM3189 + Linsitinib; first compound 2.53 µM
  relative viability: 1.06
DM3189 + Alpelisib; first compound 0.08 µM
  relative viability: 0.864
DM3189 + Alpelisib; first compound 0.253 µM
  relative viability: 0.759
DM3189 + Alpelisib; first compound 0.8 µM
  relative viability: 0.817
DM3189 + Alpelisib; first compound 2.53 µM
  relative viability: 0.985
